Assay results reported in patent US8680159B2, “Bradykinin 1 receptor modulating compounds” (Gruenenthal GmbH, priority 2010, dated 2014).

molecular target: T1, B1R receptor of the rat (CHO K1 cells stably transfected with the B1R gene of the rat) (Rattus norvegicus, UniProt P97583); assay: Functional study on the bradykinin receptor 1 (B1R), Ca2+ fluorescence (Fluo-4) FLIPR/Novostar assay, rB1R cells; type: cell-based; conditions: 10 μM
T1 construct: expressed in transfected cells; host or cells: CHO K1 cells (Chinese hamster ovary), stably transfected
T1 sequence (P97583 1-337): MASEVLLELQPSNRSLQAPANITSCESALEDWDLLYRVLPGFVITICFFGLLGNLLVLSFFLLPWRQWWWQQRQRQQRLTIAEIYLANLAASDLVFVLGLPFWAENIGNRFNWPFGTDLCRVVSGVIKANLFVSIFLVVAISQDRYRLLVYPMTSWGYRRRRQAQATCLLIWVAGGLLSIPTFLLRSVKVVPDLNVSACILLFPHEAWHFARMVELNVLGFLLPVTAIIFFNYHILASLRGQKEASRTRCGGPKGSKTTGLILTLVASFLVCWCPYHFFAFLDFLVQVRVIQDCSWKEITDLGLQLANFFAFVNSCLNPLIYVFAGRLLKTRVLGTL
Description: The agonistic or antagonistic action of substances can be quantified on the bradykinin receptor 1 (B1R) of the species human and rat using ectopically expressing cell lines (CHO K1 cells) and with the aid of a Ca^2+-sensitive dye (Fluo-4) using a fluorescent imaging plate reader (FLIPR). The indication in % activation is based on the Ca^2+ signal after addition of Lys-Des-Arg^9-bradykinin (0.5 nM) or Des-Arg^9-bradykinin (100 nM). Antagonists lead to suppression of the Ca^2+ influx after the addition of the agonist. % Inhibition compared with the maximum achievable inhibition is indicated.
The agonistic or antagonistic action of substances can be determined on the bradykinin receptor 1 (B1R) of the species human and rat using the following assay. According to this assay, the increase in intracellular Ca^2+ following administration of a B1R agonist is quantified with the aid of a Ca^2+-sensitive dye (Fluo-4 type, Molecular Probes Europe BV, Leiden, Netherlands) using a Fluorescent Imaging Plate Reader (FLIPR, Molecular Devices, Sunnyvale, USA) and/or using a Novostar (BMG Labtech GmbH, Offenburg, Germany).
Chinese hamster ovary cells (CHO K1 cells) which have been stably transfected with the human B1R gene (hB1R cells) or with the B1R gene of the rat (rB1R cells) are used. For functional studies, the cells are plated out on black 96-well plates having a clear base (BD Biosciences, Heidelberg, Germany or Greiner, Frickenhausen, Germany) in a density of 20,000-35,000 cells/well. The cells are left overnight at 37° C. and with 5% CO2 in culture medium (hB1R cells: Nutrient Mixture Ham's F12, Gibco Invitrogen GmbH, Karlsruhe, Germany or DMEM, Sigma-Aldrich, Taufkirchen, Germany; rB1R cells: D-MEM/F12, Gibco Invitrogen GmbH, Karlsruhe, Germany), with 10 vol. % FBS (fetal bovine serum, Gibco Invitrogen GmbH, Karlsruhe, Germany or PAN Biotech GmbH, Aidenbach, Germany). On the following day, the cells are loaded for 60 minutes at 37° C. with 2.13 μM Fluo-4 (Molecular Probes Europe BV, Leiden, Netherlands) in HBSS buffer (Hank's buffered saline solution, Gibco Invitrogen GmbH, Karlsruhe, Germany) […] (Sigma-Aldrich, Taufkirchen, Germany) and 10 mM HEPES (Sigma-Aldrich, Taufkirchen, Germany). The plates are then washed twice with HBSS buffer, and HBSS buffer additionally containing 0.1% BSA (bovine serum albumin; Sigma-Aldrich, Taufkirchen, Germany), 5.6 mM glucose and 0.05% gelatin (Merck KGaA, Darmstadt, Germany) is added to the plates. After incubation for a further 20 minutes at room temperature, the plates are inserted into the FLIPR or Novostar for Ca^2+ measurement. Alternatively, washing is carried out with buffer A (15 mM HEPES, 80 mM NaCl, 5 mM KCl, 1.2 mM CaCl2, 0.7 mM MgSO4, 2 g/l glucose, 2.5 mM probenecid) followed by loading with buffer A with added 2.5 μM Fluo-4 and 0.025% Pluronic F127 (Sigma-Aldrich, Taufkirchen, Germany). The cells are then washed twice with buffer A and incubated for 30 minutes at room temperature with buffer A additionally containing 0.05% BSA and 0.05% gelatin and are then inserted into the FLIPR or Novostar for Ca^2+ measurement. The Ca^2+-dependent fluorescence is measured before and after the addition of substances (λex=488 nm, λem=540 nm). Quantification is carried out by measuring the highest fluorescence intensity (FC, fluorescence counts) over time.
The FLIPR protocol consists of 2 substance additions, which are pipetted in the FLIPR. In the case of measurements using the Novostar, only the second substance addition is pipetted in the device. Both devices measure the fluorescence intensity over time. Test substances (10 μM) are first pipetted onto the cells and the intracellular Ca^2+ increase is compared with the control (hB1R: Lys-Des-Arg^9-bradykinin>=50 nM; rB1R: Des-Arg^9-bradykinin>=1 μM). This gives the % activation, based on the Ca^2+ signal after addition of Lys-Des-Arg^9-bradykinin (>=50 nM) or Des-Arg^9-bradykinin (>=1 μM). […]

| % Inhibition (r-B1R) at 10 μM [%] | Compound |
| --- | --- |
| 107 | CN(C(=O)NC1CC(C)(C)c2ccc(C(=O)N(C)C3CCN(c4ccncc4)CC3)cc21)c1ccccc1Cl (stereo not shown) [CC_H-245, 3-[[(2-Chlorophenyl)-methyl-carbamoyl]amino]-N,1,1-trimethyl-N-(1-pyridin-4-yl-piperidin-4-yl)-2,3-dihydro-indene-5-carboxylic acid amide] |

same assay, conditions: CHO-K1, 10 μM, read-out: % Inhibition (r-B1R) at 10 μM

| Compound | inhibition at 10 µM [%] |
| --- | --- |
| CN(C(=O)c1ccc2c(c1)C(N(C)C(=O)Nc1cc(Cl)ccc1Cl)CC2)C1CCN(c2ccncc2)CC1 (stereo not shown) [CC_H-221, 3-[[(2,5-Dichloro-phenyl)-carbamoyl]-methyl-amino]-N-methyl-N-(1-pyridin-4-yl-piperidin-4-yl)-2,3-dihydro-1H-indene-5-carboxylic acid amide] | 67 |
| CN(C(=O)c1ccc2c(c1)C(NC(=O)c1cc(F)ccc1Cl)CC2(C)C)C1CCN(c2ccncc2)CC1 (stereo not shown) [CC_H-222, 3-[(2-Chloro-5-fluoro-benzoyl)amino]-N,1,1-trimethyl-N-(1-pyridin-4-yl-piperidin-4-yl)-2,3-dihydro-indene-5-carboxylic acid amide] | 110 |
| CN(C(=O)c1ccc2c(c1)C(NC(=O)c1cc(C(F)(F)F)ccc1Cl)CC2(C)C)C1CCN(c2ccncc2)CC1 (stereo not shown) [CC_H-223, 3-[[2-Chloro-5-(trifluoromethyl)-benzoyl]amino]-N,1,1-trimethyl-N-(1-pyridin-4-yl-piperidin-4-yl)-2,3-dihydro-indene-5-carboxylic acid amide] | 109 |
| Cc1ccc(F)c(C(=O)NC2CC(C)(C)c3ccc(C(=O)N(C)C4CCN(c5ccncc5)CC4)cc32)c1Cl (stereo not shown) [CC_H-224, 3-[(2-Chloro-6-fluoro-3-methyl-benzoyl)amino]-N,1,1-trimethyl-N-(1-pyridin-4-yl-piperidin-4-yl)-2,3-dihydro-indene-5-carboxylic acid amide] | 110 |
| CN(C(=O)c1ccc2c(c1)C(NC(=O)c1c(Cl)cccc1C(F)(F)F)CC2(C)C)C1CCN(c2ccncc2)CC1 (stereo not shown) [CC_H-225, 3-[[2-Chloro-6-(trifluoromethyl)-benzoyl]amino]-N,1,1-trimethyl-N-(1-pyridin-4-yl-piperidin-4-yl)-2,3-dihydro-indene-5-carboxylic acid amide] | 112 |
| CN(C(=O)c1ccc2c(c1)C(NC(=O)C1CC1)CC2(C)C)C1CCN(c2ccncc2)CC1 (stereo not shown) [CC_H-226, 3-(Cyclopropanecarbonylamino)-N,1,1-trimethyl-N-(1-pyridin-4-yl-piperidin-4-yl)-2,3-dihydro-indene-5-carboxylic acid amide] | 99 |
| CN(C(=O)c1ccc2c(c1)C(NC(=O)CC(C)(C)C)CC2(C)C)C1CCN(c2ccncc2)CC1 (stereo not shown) [CC_H-227, 3-(3,3-Dimethyl-butanoylamino)-N,1,1-trimethyl-N-(1-pyridin-4-yl-piperidin-4-yl)-2,3-dihydro-indene-5-carboxylic acid amide] | 112 |
| COCC(=O)NC1CC(C)(C)c2ccc(C(=O)N(C)C3CCN(c4ccncc4)CC3)cc21 (stereo not shown) [CC_H-228, 3-[(2-Methoxy-acetyl)amino]-N,1,1-trimethyl-N-(1-pyridin-4-yl-piperidin-4-yl)-2,3-dihydro-indene-5-carboxylic acid amide] | 107 |
| CC(=O)NC1CC(C)(C)c2ccc(C(=O)N(C)C3CCN(c4ccncc4)CC3)cc21 (stereo not shown) [CC_H-229, 3-Acetylamino-N,1,1-trimethyl-N-(1-pyridin-4-yl-piperidin-4-yl)-2,3-dihydro-indene-5-carboxylic acid amide] | 104 |
| Cc1cccc(Cl)c1S(=O)(=O)NC1CC(C)(C)c2ccc(C(=O)N(C)C3CCN(c4ccncc4)CC3)cc21 (stereo not shown) [CC_H-230, 3-[[(2-Chloro-6-methyl-phenyl)sulfonyl]amino]-N,1,1-trimethyl-N-(1-pyridin-4-yl-piperidin-4-yl)-2,3-dihydro-indene-5-carboxylic acid amide] | 110 |

Second part, the compound after the results:

| inhibition at 10 µM [%] | Compound |
| --- | --- |
| 111 | CN(C(=O)c1ccc2c(c1)C(NC(=O)c1cccc(C(F)(F)F)c1Cl)CC2(C)C)C1CCN(c2ccncc2)CC1 (stereo not shown) [CC_H-231, 3-[[2-Chloro-3-(trifluoromethyl)-benzoyl]amino]-N,1,1-trimethyl-N-(1-pyridin-4-yl-piperidin-4-yl)-2,3-dihydro-indene-5-carboxylic acid amide] |
| 96 | CN(C(=O)c1ccc2c(c1)C(NC(=O)Nc1ccccc1Cl)CC2(C)C)C1CCN(c2ccncc2)CC1 (stereo not shown) [CC_H-232, 3-[[(2-Chlorophenyl)-carbamoyl]amino]-N,1,1-trimethyl-N-(1-pyridin-4-yl-piperidin-4-yl)-2,3-dihydro-indene-5-carboxylic acid amide] |
| 63 | CN(C(=O)c1ccc2c(c1)C(NC(=O)Nc1cccc(Cl)c1)CC2(C)C)C1CCN(c2ccncc2)CC1 (stereo not shown) [CC_H-233, 3-[[(3-Chlorophenyl)-carbamoyl]amino]-N,1,1-trimethyl-N-(1-pyridin-4-yl-piperidin-4-yl)-2,3-dihydro-indene-5-carboxylic acid amide] |
| 108 | CN(C(=O)c1ccc2c(c1)C(NC(=O)Nc1c(Cl)cccc1Cl)CC2(C)C)C1CCN(c2ccncc2)CC1 (stereo not shown) [CC_H-234, 3-[[(2,6-Dichloro-phenyl)-carbamoyl]amino]-N,1,1-trimethyl-N-(1-pyridin-4-yl-piperidin-4-yl)-2,3-dihydro-indene-5-carboxylic acid amide] |
| 65 | CN(C(=O)c1ccc2c(c1)C(NC(=O)Nc1cccc(Cl)c1Cl)CC2(C)C)C1CCN(c2ccncc2)CC1 (stereo not shown) [CC_H-235, 3-[[(2,3-Dichloro-phenyl)-carbamoyl]amino]-N,1,1-trimethyl-N-(1-pyridin-4-yl-piperidin-4-yl)-2,3-dihydro-indene-5-carboxylic acid amide] |
| 52 | CN(C(=O)c1ccc2c(c1)C(NC(=O)Nc1cc(Cl)ccc1Cl)CC2(C)C)C1CCN(c2ccncc2)CC1 (stereo not shown) [CC_H-236, 3-[[(2,5-Dichloro-phenyl)-carbamoyl]amino]-N,1,1-trimethyl-N-(1-pyridin-4-yl-piperidin-4-yl)-2,3-dihydro-indene-5-carboxylic acid amide] |
| 52 | CN(C(=O)c1ccc2c(c1)C(NC(=O)Nc1ccc(F)c(Cl)c1)CC2(C)C)C1CCN(c2ccncc2)CC1 (stereo not shown) [CC_H-242, 3-[[(3-Chloro-4-fluoro-phenyl)-carbamoyl]amino]-N,1,1-trimethyl-N-(1-pyridin-4-yl-piperidin-4-yl)-2,3-dihydro-indene-5-carboxylic acid amide] |
| 112 | CN(C(=O)c1ccc2c(c1)C(NC(=O)c1cc(F)ccc1Cl)CCC2)C1CCN(c2ccncc2)CC1 (stereo not shown) [CC_H-246, 8-[(2-Chloro-5-fluoro-benzoyl)amino]-N-methyl-N-(1-pyridin-4-yl-piperidin-4-yl)-5,6,7,8-tetrahydro-naphthalene-2-carboxylic acid amide] |
